The text below walks through data of patent US9896415B2, “Chalcone derivatives having an anti-allergic activity” (UNIVERSITE CLAUDE BERNARD LYON I, priority 2013, dated 2018).

Molecules are shown by their SMILES. “Also recorded” adds a separate entry of the source. Where two headings read alike, the source gives them in different places.

One experiment concerns asthma model in mice. Kind of experiment: Ovalbumin (OVA) asthma model in mice: plethysmography, broncho-alveolar wash and lung cytology. The settings on record: one day after last OVA challenge; for intrabronchial infiltrate: broncho-alveolar wash; for respiratory function: Penh in response to increasing doses of metacholine: non-invasive plethysmography, i.p. daily. The format is in vivo. The text has this:
b) Effect on the Respiratory Function in an Asthma Model in Mice
The compounds according to the invention were also subject to tests in vivo. Cromoglycate was used as a reference compound since presently it is the only compound presently marketed having been described as having an effect on the degranulation of basophils.
• The model used is an ovalbumin model (ova). The procedure includes: • 4 weeks of sensitization with ova solubilized in a solution containing alum and injected intra-peritoneally (I-P). • 1 week of challenge with 3 intranasal challenges of ova solubilized in phosphate buffer PBS for 3 subsequent days. • Injections of PBS, of compound (I.1) or of cromoglycate were carried out all along the challenge phase and continued until the date of analysis in an amount of one injection per day intra-peritoneally. • The analyses were carried out 1 and 5 days after the last intranasal challenge. • These analyses comprise:
One Day after the Last Challenge • an analysis the of the respiratory function by non-invasive plethysmography on 10 mice per group. The respiratory function is analysed in response to an increasing dose of metacholine (broncho-constrictor). • recovery and analysis of the broncho-alveolar wash (count of the number of cells, and cytological analysis) on 5 mice. • dissection of the lungs for cytological analysis (microscopic study after staining) on the same 5 mice.
Five Days after the Last Challenge • an analysis of the pulmonary resistance by the forced oscillation technique (invasive method) on the 5 remaining mice of different groups. The pulmonary resistance is analyzed in response to an increasing dose of metacholine (bronchoconstrictor). • recovery and analysis of the broncho-alveolar wash (counting the number of cells, and deposition on a slide by cytospin for cytological analysis) on these 5 mice.
A compound group (1.1) (n=10), an i-cm group (cromoglycate, n=10) and an i-PBS group (n=10).
The compound (I.1) is dissolved in a DMSO solution. This stock solution is then diluted in an ethanol:PBS (vol:vol) solution before intraperitoneal administration.
The Penh (enhanced pause) values, calculated from plethysmography measurements, express the prolongation of the expiratory pause time observed in subjects having a reduction of the bronchial calibre and are correlated with the respiratory resistance. A decrease in the Penh values therefore corresponds to a protective effect towards bronchoconstriction induced by OVA.

The test system of the next experiment is normal human basophils. Nature of the experiment: Degranulation of normal human basophils after anti-IgE antibody, CD63 and CD203c expression by flow cytometry. Type of experiment: cell-based. The settings on record: 4 donors; for Emax: Homo sapiens, effect-dose study, 1 to 100 micromolars; for dose effect, CD63 marker / dose effect, CD203c marker: between 1 and 100 micromolars, no plateau effect. The text has this:
The compounds according to the invention have a substantial protective activity towards the degranulation of normal human basophils, such that it may be evaluated by the overexpression of CD203c and of CD63 after exposure to an anti-IgE antibody. In particular, the concentration of the compound according to the invention giving the possibility of obtaining a 50% protective effect (with respect to a value of 100% corresponding to the control achieved in the absence of a compound according to the invention) belongs to the range from 1 to 100 micromolar.
a) Activity on the Degranulation of Normal Human Basophils CD203c and CD 63
This test consists of analyzing with flow cytometry the expression of the membrane markers CD203c and CD63 on normal human basophils. For this blood from healthy donors is exposed to an antibody directed against immunoglobulins E (IgE) which leads to activation and degranulation of the basophils, causing an increase in the expression of CD203c and CD63. […] As the compounds of interest are dissolved in dimethylsulfoxide (DMSO), a control is also produced by incubating the basophils in the presence of DMSO without any active ingredient.
(A flow cytometer gives signals particle by particle.)

The mark [1] stands for this setting: flow cytometry cytology, compared with PBS group.
Where [2] appears, read: read-out: maximum effect on CD63.
Setting [3] is: read-out: maximum effect on CD203c.

On to `O=C(O)c1cc(=O)c2c(OCC(O)COc3cccc4oc(C(=O)O)cc(=O)c34)cccc2o1` [cromoglycate, reference compound], for which, in the experiment on asthma model in mice (compared with PBS group), the intrabronchial infiltrate entry is recorded as “does not exhibit any significant difference” and the “respiratory function: Penh in response to increasing doses of metacholine” value was “same increases in Penh”. In addition, the “eosinophils in the intrabronchial infiltrate” value in the experiment on asthma model in mice (setting [1]) is listed as “does not show any significant reduction in the eosinophil infiltrate”.
Consider `COc1cc(O)c(C(=O)/C=C/c2c(Cl)cccc2Cl)c(OC)c1C1CCN(C)CC1` [compound (I.3)], for which the Emax with normal human basophils (setting [2]) came to 80%; in the experiment with normal human basophils (setting [3]) it was 40%. Moreover, in the experiment with normal human basophils, the “dose effect, CD63 marker” value is given as “A dose effect is observed”. The “dose effect, CD203c marker” value with normal human basophils is “A dose effect is observed”.
For `COc1cccc(OC)c1/C=C/C(=O)c1c(O)cc(OC)c(C2CCN(C)CC2)c1OC` [compound (I.2)], the Emax in the experiment on normal human basophils (setting [2]) came out at 80%. Further, the Emax with normal human basophils (setting [3]) was 40%. In the experiment with normal human basophils, the “dose effect, CD63 marker” value is given as “A dose effect is observed” and the “dose effect, CD203c marker” value is recorded as “A dose effect is observed”.
Consider `COc1cc(OC)c(/C=C/C(=O)c2c(O)cc(OC)c(C3CCN(C)CC3)c2OC)c(OC)c1` [compound (I.1)], for which the Emax in the experiment with normal human basophils (setting [2]) amounted to 80%. Besides, the Emax in the experiment with normal human basophils (setting [3]) came out at 40%. For the same compound, in the experiment on normal human basophils, the “dose effect, CD63 marker” value is “A dose effect is observed” and the “dose effect, CD203c marker” value is on record as “A dose effect is observed”. Besides, in the experiment on asthma model in mice (compared with PBS group), the intrabronchial infiltrate entry is “significant decrease in the intrabronchial infiltrate” and the “respiratory function: Penh in response to increasing doses of metacholine” value is “the difference is only significant for the dose at 40 mg/ml; also recorded: improves the respiratory function of the mice”. Moreover, in the experiment on asthma model in mice (setting [1]), the “T lymphocytes in the intrabronchial infiltrate” value is “reduction” and the “eosinophils in the intrabronchial infiltrate” value is “a reduction in the eosinophils”. The intra-pulmonary hypereosinophilia entry in the experiment on asthma model in mice (lungs, flow cytometry cytology) was “much less substantial”.
